Measurements as given in patent US20140249135A1, “PIM KINASE INHIBITORS AND METHODS OF THEIR USE” (NOVARTIS AG, priority 2007, published 2014).
Read-outs that look alike come from different tables or passages of the source.

Key:
Format in all cases: biochemical
Pim1 kinase = Pim1 kinase (Homo sapiens, UniProt P11309); test: Pim1 ATP depletion assay;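 also: Luciferase-luciferin luminescence readout of residual ATP after PIM1 transfers phosphate to a peptide substrate, 40 µM ATP added, reaction run to roughly half ATP consumption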
Pim2 kinase = Pim2 kinase (Homo sapiens, UniProt Q9P1W9); test: Pim2 ATP depletion assay;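 also: Luciferase-based luminescent readout of ATP remaining after PIM2 phosphorylates a BAD peptide, final 5 nM enzyme, 4 µM ATP, 10 µM peptide, 2.5% DMSO, run to roughly half ATP consumption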
Pim3 kinase = Pim3 kinase (Homo sapiens, UniProt Q86V86); test: Pim3 ATP depletion assay
[1] = Pim1 ATP depletion assay, read-out: IC50 (μM) PIM1
[2] = Pim1 ATP depletion assay, read-out: PIM1 IC50

Pim1 kinase, sequence (P11309 whole entry): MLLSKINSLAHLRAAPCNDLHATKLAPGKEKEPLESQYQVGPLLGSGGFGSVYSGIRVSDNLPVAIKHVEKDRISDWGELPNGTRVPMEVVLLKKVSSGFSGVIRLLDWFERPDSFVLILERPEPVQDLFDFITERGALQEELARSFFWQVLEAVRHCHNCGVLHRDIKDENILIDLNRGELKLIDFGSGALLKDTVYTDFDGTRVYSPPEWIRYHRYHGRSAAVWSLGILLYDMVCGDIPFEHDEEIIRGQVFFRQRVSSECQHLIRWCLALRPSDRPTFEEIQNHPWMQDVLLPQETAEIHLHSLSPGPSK
Pim2 kinase, sequence (Q9P1W9 whole entry): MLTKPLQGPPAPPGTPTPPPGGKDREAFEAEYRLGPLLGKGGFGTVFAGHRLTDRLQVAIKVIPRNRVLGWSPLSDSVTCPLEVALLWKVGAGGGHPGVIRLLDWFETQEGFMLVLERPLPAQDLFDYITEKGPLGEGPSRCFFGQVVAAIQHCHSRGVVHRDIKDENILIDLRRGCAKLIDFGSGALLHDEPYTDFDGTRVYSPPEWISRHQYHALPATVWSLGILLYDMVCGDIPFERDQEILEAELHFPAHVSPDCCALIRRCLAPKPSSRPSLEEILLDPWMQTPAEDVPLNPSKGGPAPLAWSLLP

IC50 (Pim1 kinase; [1]) | IC50 (Pim2 kinase; read-out: IC50 (μM) PIM2) | IC50 (Pim3 kinase; read-out: IC50 (μM) PIM3) | IC50 (Pim1 kinase; [2]) | IC50 (Pim2 kinase; read-out: PIM2 IC50) | IC50 (Pim3 kinase; read-out: PIM3 IC50) | IC50 (Pim1 kinase) | Structure (SMILES)
< 1 µM | < 1 µM | < 1 µM |  |  |  |  | Nc1ccc(-c2ccc(-c3ccccc3)cc2)nc1C(=O)Nc1cnccc1N1CCC[C@H](N)C1 [Example 473, 3-Amino-6-biphenyl-4-yl-pyridine-2-carboxylic acid (3-amino-3,4,5,6-tetrahydro-2H-[1,4′]bipyridinyl-3′-yl)-amide]
< 1 µM | < 1 µM | < 1 µM |  |  |  |  | Nc1ccc(-c2c(F)cccc2F)nc1C(=O)Nc1cnccc1N1C[C@@H](N)C[C@H](O)C1 [Example 297, 3-Amino-6-(2,6-difluoro-phenyl)-pyridine-2-carboxylic acid (3-amino-5-hydroxy-3,4,5,6-tetrahydro-2H-[1,4′]bipyridinyl-3′-yl)-amide]
 |  |  | < 1 µM | < 1 µM | < 1 µM |  | CCc1ccc(N)c(C(=O)Nc2cnccc2N2CCC[C@H](N)C2)n1 [Example 639, 3-amino-N-{4-[(3S)-3-aminopiperidin-1-yl]pyridin-3-yl}-6-ethylpyridine-2-carboxamide]
 |  |  | < 1 µM | < 1 µM | < 1 µM |  | CC(C)Oc1ccc(F)c(-c2ncc(N)c(C(=O)Nc3cnccc3N3CCC[C@H](N)C3)n2)c1 [Example 541, 5-Amino-2-(2-fluoro-5-isopropoxy-phenyl)-pyrimidine-4-carboxylic acid (3-amino-3,4,5,6-tetrahydro-2H-[1,4′]bi-pyridinyl-3′-yl)-amide]
< 1 µM | < 1 µM | < 1 µM |  |  |  |  | Nc1cc(-c2ccncc2NC(=O)c2cccc(-c3c(F)cccc3F)n2)nc(C(F)(F)F)n1 [Example 528, 6-(2,6-Difluoro-phenyl)-pyridine-2-carboxylic acid [4-(6-amino-2-trifluoromethyl-pyrimidin-4-yl)-pyridin-3-yl]-amide]
< 1 µM | < 1 µM | < 1 µM |  |  |  |  | COc1cccc(-c2nc(C(=O)Nc3cnccc3N3CCC[C@H](N)C3)c(N)cc2F)n1 [Example 512, 5-Amino-3-fluoro-6′-methoxy-[2,2′]bipyridinyl-6-carboxylic acid (3-amino-3,4,5,6-tetrahydro-2H-[1,4′]bipyridinyl-3′-yl)-amide]
 |  |  | < 1 µM | < 1 µM | < 1 µM |  | Nc1ccc(C2CC2)nc1C(=O)Nc1cnccc1N1CCC[C@H](N)C1 [Example 638, 3-amino-N-{4-[(3S)-3-aminopiperidin-1-yl]pyridin-3-yl}-6-cyclopropyl-pyridine-2-carboxamide]
< 1 µM | < 1 µM | < 1 µM |  |  |  |  | CS(=O)(=O)Nc1cccc(-c2nc(C(=O)Nc3cnccc3N3CCC[C@H](N)C3)c(N)cc2F)c1 [Example 498, 3-Amino-5-fluoro-6-(3-methanesulfonylamino-phenyl)-pyridine-2-carboxylic acid (3-amino-3,4,5,6-tetrahydro-2H-[1,4′]bipyridinyl-3′-yl)-amide]
 |  |  | < 1 µM | < 1 µM | < 1 µM |  | Nc1ccc(-c2c(F)cccc2F)nc1C(=O)Nc1cnccc1-c1cc(F)nc(F)c1 [Example 607, 3-amino-N-(2′,6′-difluoro-4,4′-bipyridin-3-yl)-6-(2,6-difluorophenyl)pyridine-2-carboxamide]
 |  |  | < 1 µM | < 1 µM | < 1 µM |  | Nc1cc(-c2ccncc2NC(=O)c2nc(-c3ccccc3F)ccc2N)ccn1 [Example 605, 3-amino-N-(2′-amino-4,4′-bipyridin-3-yl)-6-(2-fluorophenyl)pyridine-2-carboxamide]
< 1 µM | < 1 µM | < 1 µM |  |  |  |  | Cc1ccc(-c2ccc(N)c(C(=O)Nc3cnccc3N3CCC[C@H](N)C3)n2)c(F)n1 [Example 476, 5-Amino-2′-fluoro-6′-methyl-[2,3′]bipyridinyl-6-carboxylic acid (3-amino-3,4,5,6-tetrahydro-2H-[1,4′]bipyridinyl-3′-yl)-amide]
 |  |  | < 1 µM | < 1 µM | < 1 µM |  | Nc1ccc(-c2ccccn2)nc1C(=O)Nc1cnccc1N1CCC[C@H](N)C1 [Example 730, 5-Amino-[2,2′]bipyridinyl-6-carboxylic acid (3-amino-3,4,5,6-tetrahydro-2H-[1,4′]bi-pyridinyl-3′-yl)-amide]
 |  |  | < 1 µM | < 1 µM | < 1 µM |  | Cc1cc(F)c(-c2ccc(N)c(C(=O)Nc3cnccc3N3CCCC(O)C3)n2)cc1Cl (stereo not drawn) [Example 654, 3-Amino-6-(5-chloro-2-fluoro-4-methyl-phenyl)-pyridine-2-carboxylic acid (3-hydroxy-3,4,5,6-tetrahydro-2H-[1,4′]bi-pyridinyl-3′-yl)-amide]
> 25 µM | > 25 µM | > 25 µM |  |  |  |  | NC1CCCN(c2ccncc2NC(=O)c2cnccn2)C1 (stereo not drawn) [Example 197, N-[4-(3-aminopiperidin-1-yl)-pyridin-3-yl]pyrazine-2-carboxamide]
 |  |  | < 1 µM | < 1 µM | < 1 µM |  | COc1cnccc1-c1ccncc1NC(=O)c1nc(-c2ccccc2F)ccc1N [Example 610, 3-amino-6-(2-fluorophenyl)-N-(3′-methoxy-4,4′-bipyridin-3-yl)pyridine-2-carboxamide]
 |  | < 1 µM |  |  |  |  | CC1CC(N)CN(c2ccncc2NC(=O)c2ccc(F)c(-c3ccccc3F)n2)C1 (stereo not drawn) [Example 287, 5-Fluoro-6-(2-fluoro-phenyl)-pyridine-2-carboxylic acid (3-amino-5-methyl-3,4,5,6-tetra-hydro-2H-[1,4′]bipyridinyl-3′-yl)-amide]

Further lines, the compound ahead of its results:

Structure (SMILES) | IC50 (Pim1 kinase; [1]) | IC50 (Pim2 kinase; read-out: IC50 (μM) PIM2) | IC50 (Pim3 kinase; read-out: IC50 (μM) PIM3) | IC50 (Pim1 kinase; [2]) | IC50 (Pim2 kinase; read-out: PIM2 IC50) | IC50 (Pim3 kinase; read-out: PIM3 IC50) | IC50 (Pim1 kinase)
CC(C)NC(=O)c1ccc(F)c(-c2ccc(N)c(C(=O)Nc3cnccc3N3C[C@@H](N)C[C@@H](O)C3)n2)c1 [Example 677, 3-Amino-6-(2-fluoro-5-isopropylcarbamoyl-phenyl)-pyridine-2-carboxylic acid (3-amino-5-hydroxy-3,4,5,6-tetra-hydro-2H-[1,4′]bipyridinyl-3′-yl)-amide] |  |  |  | < 1 µM | < 1 µM | < 1 µM | 
CCOc1ccc(F)c(-c2nc(C(=O)Nc3cnccc3N3CCC[C@H](N)C3)c(N)cc2F)c1F [Example 495, 3-Amino-6-(3-ethoxy-2,6-difluoro-phenyl)-5-fluoro-pyridine-2-carboxylic acid (3-amino-3,4,5,6-tetrahydro-2H-[1,4′]bipyridinyl-3′-yl)-amide] | < 1 µM | < 1 µM | < 1 µM |  |  |  | 
Nc1ccc(-c2c(F)cccc2F)nc1C(=O)Nc1cnccc1N1C[C@@H](N)C[C@H](OC(=O)c2ccccc2)C1 [Example 295, Benzoic acid 5-amino-3′-{[3-amino-6-(2,6-difluoro-phenyl)-pyridine-2-carbonyl]-amino}-3,4,5,6-tetrahydro-2H-[1,4′]bi-pyridinyl-3-yl ester] | < 1 µM | 1 to 10 µM | < 1 µM |  |  |  | 
Nc1ccc(-c2ncc(Cl)cc2Cl)nc1C(=O)Nc1cnccc1N1CCC[C@H](N)C1 [Example 700, 5-Amino-3′,5′-dichloro-[2,2′]bi-pyridinyl-6-carboxylic acid (3-amino-3,4,5,6-tetrahydro-2H-[1,4′]bipyridinyl-3′-yl)-amide] |  |  |  | < 1 µM | < 1 µM | < 1 µM | 
CCCCOc1ccc(F)c(-c2ccc(N)c(C(=O)Nc3cnccc3N3CCC[C@H](N)C3)n2)c1F [Example 466, 3-Amino-6-(3-butoxy-2,6-difluoro-phenyl)-pyridine-2-carboxylic acid (3-amino-3,4,5,6-tetrahydro-2H-[1,4′]bipyridinyl-3′-yl)-amide] | < 1 µM | < 1 µM | < 1 µM |  |  |  | 
CC(C)Oc1ccc(F)c(-c2ccc(N)c(C(=O)Nc3cnccc3N3CC[C@@H](O)[C@H](N)C3)n2)c1F (stereo in doubt) [Example 665, 3-Amino-6-(2,6-difluoro-3-isopropoxy-phenyl)-pyridine-2-carboxylic acid (3-amino-4-hydroxy-3,4,5,6-tetrahydro-2H-[1,4′]bipyridinyl-3′-yl)-amide] |  |  |  | < 1 µM | < 1 µM | < 1 µM | 
CCc1cccc(-c2ccc(N)c(C(=O)Nc3cnccc3-c3cc(N)nc(C)n3)n2)c1 [Example 555, 3-Amino-6-(3-ethyl-phenyl)-pyridine-2-carboxylic acid [4-(6-amino-2-methyl-pyrimidin-4-yl)-pyridin-3-yl]-amide] |  |  |  | < 1 µM | < 1 µM | < 1 µM | 
Cc1nc(N)cc(-c2ccncc2NC(=O)c2nc(-c3ccc(C(F)(F)F)cc3F)ccc2N)n1 [Example 557, 3-Amino-6-(2-fluoro-4-trifluoromethyl-phenyl)-pyridine-2-carboxylic acid [4-(6-amino-2-methyl-pyrimidin-4-yl)-pyridin-3-yl]-amide] |  |  |  | < 1 µM | < 1 µM | < 1 µM | 
CC(C)N(C)C(=O)c1ccc(F)c(-c2ccc(N)c(C(=O)Nc3cnccc3N3CCC[C@H](N)C3)n2)c1F [Example 689, 3-Amino-6-[2,6-difluoro-3-(isopropyl-methyl-carbamoyl)-phenyl]-pyridine-2-carboxylic acid (3-amino-3,4,5,6-tetra-hydro-2H-[1,4′]bipyridinyl-3′-yl)-amide] |  |  |  | < 1 µM | < 1 µM | < 1 µM | 
Nc1ccc(-c2ccccc2F)nc1C(=O)Nc1cnccc1N1C[C@H](N)C[C@H](N)C1 [Example 248, 3-Amino-6-(2-fluoro-phenyl)-pyridine-2-carboxylic acid (3,5-diamino-3,4,5,6-tetrahydro-2H-[1,4′]bipyridinyl-3′-yl)-amide] | < 1 µM | < 1 µM | < 1 µM |  |  |  | 
Nc1ccc(-c2ccccc2C(F)(F)F)nc1C(=O)Nc1cnccc1N1CCC[C@H](N)C1 [Example 336] |  | < 1 µM | < 1 µM |  |  |  | < 1 µM
Nc1ccc(C2CCCCC2)nc1C(=O)Nc1cnccc1N1CCC[C@H](N)C1 [Example 636, 3-Amino-6-cyclohexyl-pyridine-2-carboxylic acid (3-amino-3,4,5,6-tetrahydro-2H-[1,4′]bipyridinyl-3′-yl)-amide] |  |  |  | < 1 µM |  | < 1 µM | 
